Assay results as given in patent US12173018B2, “Penicillin-binding protein inhibitors” (priority 2018, dated 2024).
≈ marks a conversion by molar mass, not a printed value.

Key:
[1] = target: E. coli PBP4 (Escherichia coli (strain K12), UniProt P24228); experiment: E. coli PBP4 Bocillin-FL fluorescence polarization competition binding assay; settings: fluorescence polarization competition binding with Bocillin-FL; read-out: E. coli K12 PBP4 Potency (EC50)
How it was run: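 This was a fluorescence polarization competition with fluorescent penicillin Bocillin-FL (0.1 μM final), read at 490/520 nm for 60 min immediately after its addition. The buffer was Hepes pH 8.0 with 300 mM NaCl and 5% glycerol, containing 1.5 μM PBP and test inhibitor up to 1000 μM. Potency is expressed as EC50 for reducing probe binding.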

[2] = target: E. coli PBP2 (Escherichia coli (strain K12), UniProt P0AD65); experiment: E. coli PBP2 Bocillin-FL fluorescence polarization competition binding assay; settings: fluorescence polarization competition binding with Bocillin-FL; read-out: E. coli K12 PBP2 Potency (EC50)
How it was run: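 Purified PBP2 at 1.5 μM final was preincubated with boronic acid inhibitor, then Bocillin-FL added to 0.1 μM final in Hepes pH 8.0/NaCl/glycerol buffer. Polarization was monitored 90 min; the concentration halving probe binding is reported as EC50.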

[3] = tested on: engineered strain of Escherichia coli harboring CTX-M15; experiment: microbe, parasite or virus in culture; assay type: cell-based; settings: Escherichia coli, read-out: Microbiological Activity (MIC in mg/L), E. coli DH5α/pLBII-CTX-M15, engineered strain producing CTX-M15

Sequence of E. coli PBP2 (P0AD65 whole entry): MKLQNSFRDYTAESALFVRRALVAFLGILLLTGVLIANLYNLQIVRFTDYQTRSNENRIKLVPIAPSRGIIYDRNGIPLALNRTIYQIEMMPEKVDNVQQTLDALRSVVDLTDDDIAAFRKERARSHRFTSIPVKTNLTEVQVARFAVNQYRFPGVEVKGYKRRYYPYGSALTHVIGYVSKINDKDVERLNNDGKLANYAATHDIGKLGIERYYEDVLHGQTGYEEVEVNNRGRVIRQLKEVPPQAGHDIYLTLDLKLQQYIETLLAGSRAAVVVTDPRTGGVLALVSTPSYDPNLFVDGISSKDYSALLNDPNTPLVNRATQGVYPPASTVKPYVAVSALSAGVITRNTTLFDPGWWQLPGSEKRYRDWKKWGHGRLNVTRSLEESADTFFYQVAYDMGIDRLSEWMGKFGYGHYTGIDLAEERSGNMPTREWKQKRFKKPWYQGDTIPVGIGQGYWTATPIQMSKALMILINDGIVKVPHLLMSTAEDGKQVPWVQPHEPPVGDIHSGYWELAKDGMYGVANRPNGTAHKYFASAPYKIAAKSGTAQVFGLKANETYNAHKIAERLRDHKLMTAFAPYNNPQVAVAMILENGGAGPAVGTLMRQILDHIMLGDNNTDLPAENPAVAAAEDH
Sequence of E. coli PBP4 (P24228 21-477): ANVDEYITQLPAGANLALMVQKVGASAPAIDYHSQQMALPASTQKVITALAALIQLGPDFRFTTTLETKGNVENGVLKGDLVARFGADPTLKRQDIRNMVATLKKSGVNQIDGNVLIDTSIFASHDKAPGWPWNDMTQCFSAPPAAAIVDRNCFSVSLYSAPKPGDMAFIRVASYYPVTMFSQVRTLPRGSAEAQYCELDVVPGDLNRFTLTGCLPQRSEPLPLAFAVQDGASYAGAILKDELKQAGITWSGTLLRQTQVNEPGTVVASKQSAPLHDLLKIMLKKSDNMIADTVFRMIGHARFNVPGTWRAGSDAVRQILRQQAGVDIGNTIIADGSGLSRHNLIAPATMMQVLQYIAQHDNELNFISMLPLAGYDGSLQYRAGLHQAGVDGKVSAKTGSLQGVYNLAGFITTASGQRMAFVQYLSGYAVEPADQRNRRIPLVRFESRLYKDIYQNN

Row | SMILES | EC50 [1] [µM] | EC50 [2] [µM] | MIC [3] [mg/L]
1 | CCN1CCN(C(=O)NC(C(=O)N[C@H]2Cc3cccc(C(=O)O)c3OB2O)c2ccc(O)cc2F)C(=O)C1=O (stereo partly drawn) [Example 87, (3R)-3-(2-(4-ethyl-2,3-dioxopiperazine-1-carboxamido)-2-(2-fluoro-4-hydroxyphenyl)acetamido)-2-hydroxy-3,4-dihydro-2H-benzo[e][1,2]oxaborinine-8-carboxylic acid] | > 500 | > 500 | 32 to 64 (≈ 59 to 118 µM)
2 | CCN1CCN(C(=O)NC(C(=O)N[C@H]2Cc3cccc(C(=O)O)c3OB2O)c2cccc(O)n2)C(=O)C1=O (stereo partly drawn) [Example 117, (3R)-3-(2-(4-ethyl-2,3-dioxopiperazine-1-carboxamido)-2-(6-hydroxypyridin-2-yl)acetamido)-2-hydroxy-3,4-dihydro-2H-benzo[e][1,2]oxaborinine-8-carboxylic acid] | > 500 | > 500 | 32 to 64 (≈ 60.9 to 122 µM)
3 | CCN1CCN(C(=O)NC(C(=O)N[C@H]2Cc3cc(F)cc(C(=O)O)c3OB2O)c2csc(N)n2)C(=O)C1=O (stereo partly drawn) [Example 16, (3R)-3-(2-(2-aminothiazol-4-yl)-2-(4-ethyl-2,3-dioxopiperazine-1-carboxamido)acetamido)-6-fluoro-2-hydroxy-3,4-dihydro-2H-benzo[e][1,2]oxaborinine-8-carboxylic acid] | > 500 | > 500 | 32 to 64 (≈ 58.4 to 117 µM)
4 | CCN1CCN(C(=O)N[C@@H](C(=O)N[C@H]2Cc3ccc(F)c(C(=O)O)c3OB2O)[C@@H](C)O)C(=O)C1=O [Example 110, (R)-3-((2R,3R)-2-(4-ethyl-2,3-dioxopiperazine-1-carboxamido)-3-hydroxybutanamido)-7-fluoro-2-hydroxy-3,4-dihydro-2H-benzo[e][1,2]oxaborinine-8-carboxylic acid] | > 500 | > 500 | 8 to 16 (≈ 16.2 to 32.4 µM)
5 | CCN1CCN(C(=O)NC(C(=O)N[C@H]2Cc3cccc(C(=O)O)c3OB2O)c2cc(O)c(O)cc2F)C(=O)C1=O (stereo partly drawn) [Example 90, (3R)-3-(2-(4-ethyl-2,3-dioxopiperazine-1-carboxamido)-2-(2-fluoro-4,5-dihydroxyphenyl)acetamido)-2-hydroxy-3,4-dihydro-2H-benzo[e][1,2]oxaborinine-8-carboxylic acid] | > 500 | > 500 | 8 to 16 (≈ 14.3 to 28.7 µM)
6 | CCN1CCN(C(=O)NC(C(=O)N[C@H]2Cc3cccc(C(=O)O)c3OB2O)c2ccc(O)cc2)C(=O)C1=O (stereo partly drawn) [Example 27, (3R)-3-(2-(4-ethyl-2,3-dioxopiperazine-1-carboxamido)-2-(4-hydroxyphenyl)acetamido)-2-hydroxy-3,4-dihydro-2H-benzo[e][1,2]oxaborinine-8-carboxylic acid] | > 500 | > 500 | 8 to 16 (≈ 15.3 to 30.5 µM)
7 | CCN1CCN(C(=O)NC(C(=O)N[C@H]2Cc3cccc(C(=O)O)c3OB2O)c2cnc(N)s2)C(=O)C1=O (stereo partly drawn) [Example 51, (3R)-3-(2-(2-aminothiazol-5-yl)-2-(4-ethyl-2,3-dioxopiperazine-1-carboxamido)acetamido)-2-hydroxy-3,4-dihydro-2H-benzo[e][1,2]oxaborinine-8-carboxylic acid] | > 500 | > 500 | 
